Test results from US7820829B2, “Bisbenzisoselenazolonyl derivatives having antineoplastic, anti-inflammatory and antithrombotic activities as well as their use” (Peking University, priority 2001, dated 2010).

Assays:
[1] = test system: xylene-induced ear oedema; experiment: Xylene-induced ear oedema in mice; format: in vivo; conditions: oral; for Inhibiting rate (%) (to aspirin): relative to aspirin 200 mg/kg; for Inhibiting rate (%) (to indomethacin): relative to indomethacin 22 mg/kg
Protocol: The anti-inflammatory effects of the test compounds E001, E002 and E 003 were evaluated in xylene-induced ear oedema in mice. The mice were randomized into a no-treatment control group, three reference groups and three treatment groups. There are 10 animals in each group. The test compounds, saline and reference drugs (indomethacin, Aspirin and Ebselen) were orally administered respectively. Ear oedema was induced by topical administration of xylene ([…] per ear) to the inner surface of the right ear after 1 hour of the administration. After 2 hours, the mice were killed. The change in the ear's weight with diameter of 8 mm was measured with a precision micrometer. The inhibiting rate of each compound to the xylene-induced ear oedema was calculated in accordance with the ear weight and the results were listed in Table 7.
The procedure described in Example 8 was repeated. And the results of the experiment are shown by the following table: […]

HL-60 = experiment: E003 in combination with other antineoplastic agents on growth of cancer cell; format: cell-based, human; conditions: HL-60, 24 h
Lewis lung cancer = Lewis lung cancer transplanted in C57 mice; format: in vivo, C57 mouse; conditions: 2 mg/kg
Protocol: Lewis lung cancer tissue was resuscitated and subcultured by standard procedure. A piece of Lewis lung cancer was transplanted into the subcutaneous space on the back of each C 57 mouse for inoculation and growth. The Lewis lung cancer cells were dispersed in saline to form a cell suspension of 10^6/ml. 0.2-0.3 ml of the suspension were inoculated into each C57 mouse Mice were randomized into three groups, 10 for each group. In the treatment group, the mice were injected i.p. with […] in amount of 50 mg/kg; in reference group, DDp, 2 mg/kg; and in the negative control group (solvent group), 0.5% CMC-Na. The total volume for every group is the same. […] was administered by i.p. from the second day of transplantation for 3 days until the mice were sacrificed. The C57 mice were disinfected with 70% alcohol. The Lewis lung cancer tissue was removed, photographed and weighted. Then, the subcutaneous tumors were fixed by formaldehyde for further analysis.

thrombosis = experiment: Electrically induced thrombosis in rat neck artery (OT value); format: in vivo; conditions: male SD rats, oral 30 mg/kg, 1 hour after administration; electricity 3 mA, 180 s
Protocol: Male SD rats (300-400 g) were randomized into a no-treatment control group (0.25% CMC), an ASA reference group (0.25% CMC, a few Tween-80) and three treatment groups (the compounds E001, E002 and E003). There are 5 animals in each group. The inventive compounds and reference drugs were orally administered respectively in amount of 30 mg/kg. The animals were anesthetized with urethane after 1 hour of the administration. The neck artery was separated surgically and OT value was measured (the stimulating conditions: electricity, 3 mA; time, 180 s).

mice = conditions: cited from earlier work

SMILES: COc1ccc2c(c1)c(CC(=O)O)c(C)n2C(=O)c1ccc(Cl)cc1 [Indomethacin]
- Ear oedema % ([1]; Example 8, mice, 22 mg/kg): 19.89%
- Ear oedema % ([1]; Example 11, mice, 22 mg/kg): 19.12%

SMILES: COc1cccc2c1C(=O)c1c(O)c3c(c(O)c1C2=O)C[C@@](O)(C(=O)CO)C[C@@H]3O[C@H]1C[C@H](N)[C@H](O)[C@H](C)O1 [Adriamycin]
- inhibition at 0.1 µg/mL (HL-60; Homo sapiens, Adriamycin alone 0.1 mg/L, read-out: Inhibition rate): -7 ± 0.7%

SMILES: N.N.[Cl][Pt][Cl] [DDP, Cisplatin]
- tumor volume, average (Lewis lung cancer): 473 mm^3
- Inhibition rate (HL-60; Cisplatin alone 0.5 μmol/L): 0.067 ± 0.014
- Inhibition rate (HL-60; Cisplatin alone 5 μmol/L): 0.12 ± 0.032

SMILES: CC(=O)Oc1ccccc1C(=O)O [Aspirin]
- Ear oedema % ([1]; Example 8, mice, 200 mg/kg): 10.63%
- Ear oedema % ([1]; Example 11, mice, 200 mg/kg): 10.27%
- Average OT value (thrombosis): 588.2 s

SMILES: CC(=O)O[C@H]1C(=O)[C@@]2(C)[C@H]([C@H](OC(=O)c3ccccc3)[C@]3(O)C[C@H](OC(=O)[C@H](O)[C@@H](NC(=O)c4ccccc4)c4ccccc4)C(C)=C1C3(C)C)[C@]1(OC(C)=O)CO[C@@H]1C[C@@H]2O [Taxol]
- inhibition at 0.001 µg/mL (HL-60; Homo sapiens, Taxol alone 0.001 mg/L, read-out: Inhibition rate): 2 ± 1%
- inhibition at 0.01 µg/mL (HL-60; Homo sapiens, Taxol alone 0.01 mg/L, read-out: Inhibition rate): 27 ± 7.9%

SMILES: O=c1c2ccccc2[se]n1-c1ccccc1 [Ebselen, 2-phenyl-(1,2)-benzisoselenazol-3(2H)-on]
- Ear oedema % ([1]; Example 8, mice, 50 mg/kg): 6.22%
- Inhibiting rate (%) (to aspirin) ([1]; Example 8, mice, 50 mg/kg): 41.48 (to aspirin) %
- Inhibiting rate (%) (to indomethacin) ([1]; Example 8, mice, 50 mg/kg): 68.72 (to indomethacin) %
- LD50 (mice): > 6810 mg/kg

SMILES: CC(=O)OC[C@H]1OC(OC(C)=O)[C@H](n2[se]c3ccccc3c2=O)[C@@H](OC(C)=O)[C@@H]1OC(C)=O (stereo partly drawn) [Compound E001, 2-(1,3,4,6-tetra-O-acetyl-2-deoxy-D-glucopyranosyl)-(1,2)-benzisoselenazol-3(2H)-one]
- Ear oedema % ([1]; Example 8, mice, 50 mg/kg): 4.81%
- Inhibiting rate (%) (to aspirin) ([1]; Example 8, mice, 50 mg/kg): 54.75 (to aspirin) %
- Inhibiting rate (%) (to indomethacin) ([1]; Example 8, mice, 50 mg/kg): 75.81 (to indomethacin) %
- Average OT value (thrombosis): 561.2 s
